Results reported in patent publication US11980618B2, “Nitric oxide releasing phosphodiesterase type 5 inhibitor” (NICOX S.A., priority 2018, dated 2024).

How the values were obtained:
[1] = system: laser-induced ocular hypertensive non-human primates; assay: Intraocular pressure (IOP) lowering effect in laser-induced ocular hypertensive non-human primates (topical dosing, pneumatonometer); assay type: in vivo
[2] = system: ocular normotensive New Zealand white rabbits; assay: Intraocular pressure (IOP) lowering effects in ocular normotensive New Zealand white rabbits (topical dosing, pneumatonometer); assay type: in vivo
[3] = Example 26, 2.0% w/v, 30 μL topical

SMILES: CCCOc1ccc(S(=O)(=O)N2CCN(CCO)CC2)cc1-c1nc2c(CCC)cn(CC)c2c(=O)[nH]1 [Mirodenafil, reference compound]
- IOP change (mmHg) E300 min ([1]; Example 22, Table 1, 300 min post-dose, topical 30 μL, 0.48 μmoles/eye (1.17 μmoles/eye for (IIIg)-OH), mean±SEM n=13): −3.4 ± 2.3 mmHg
- time post-dosing of Emax ([1]; Example 22, Table 1, topical 30 μL, 0.48 μmoles/eye (1.17 μmoles/eye for (IIIg)-OH)): 180 min
- IOP change (mmHg) Emax ([1]; Example 22, Table 1, topical 30 μL, 0.48 μmoles/eye (1.17 μmoles/eye for (IIIg)-OH), change versus basal and vehicle, mean±SEM n=13): −5.0 ± 2.1 mmHg
- IOP change (mmHg) 30 min ([1]; Example 27, Table 6, 0.31 μmoles/eye (each compound), 30 μL topical, 30 min post-dose, mean±SEM n=13): −2.2 ± 1.4 mmHg
- IOP change (mmHg) 60 min ([1]; Example 27, Table 6, 0.31 μmoles/eye (each compound), 30 μL topical, 60 min post-dose, mean±SEM n=13): −4.1 ± 1.5 mmHg
- IOP change (mmHg) 180 min ([1]; Example 27, Table 6, 0.31 μmoles/eye (each compound), 30 μL topical, 180 min post-dose, mean±SEM n=13): −3.8 ± 1.0 mmHg
- IOP change (mmHg) 300 min ([1]; Example 27, Table 6, 0.31 μmoles/eye (each compound), 30 μL topical, 300 min post-dose, mean±SEM n=13): −2.2 ± 1.1 mmHg
- IOP change (mmHg) 1440 min ([1]; Example 27, Table 6, 0.31 μmoles/eye (each compound), 30 μL topical, 1440 min post-dose, mean±SEM n=13): −1.0 ± 1.1 mmHg
- IOP change (mmHg) E300 min ([2]; Example 24, Table 3, 300 min post-dosing, topical 50 μL, 0.5 μmoles/eye (each compound), mean±SEM n=6-9): −1.46 ± 0.79 mmHg
- time post-dosing of Emax ([2]; Example 24, Table 3, topical 50 μL, 0.5 μmoles/eye (each compound)): 120 min
- IOP change (mmHg) Emax ([2]; Example 24, Table 3, topical 50 μL, 0.5 μmoles/eye (each compound), change versus basal and vehicle, mean±SEM n=6-9): −3.68 ± 0.89 mmHg

SMILES: COc1ccc(CNc2nc(N3CCC[C@H]3COC(=O)CCCCCO[N+](=O)[O-])ncc2C(=O)NCc2ncccn2)cc1Cl.O=C(O)CC(O)(CC(=O)O)C(=O)O [Compound (9)-citrate salt, (S)-(1-(4-(3-chloro-4-methoxybenzylamino)-5-(pyrimidin-2-ylmethylcarbamoyl)pyrimidin-2-yl)pyrrolidin-2-yl)methyl 6-(nitrooxy)hexanoate 2-hydroxypropane-1,2,3-tricarboxylate]
- IOP change (mmHg) E480 ([1]; in vivo): −6.0±2.1 mmHg
- IOP change (mmHg) Emax ([1]; in vivo): −6.0±2.1 mmHg

SMILES: COc1ccc(CNc2nc(N3CCC[C@H]3COC(=O)CCCCCO[N+](=O)[O-])ncc2C(=O)NCc2ncccn2)cc1Cl.O=C(O)/C=C/C(=O)O [Compound (9)-fumarate salt, (S)-(1-(4-(3-chloro-4-methoxybenzylamino)-5-(pyrimidin-2-ylmethylcarbamoyl)pyrimidin-2-yl)pyrrolidin-2-yl)methyl 6-(nitrooxy)hexanoate Fumarate]
- IOP change (mmHg) 30 min ([1]; Example 26, Table 5, 2.0% w/v, 30 μL topical, 30 min post-dosing, mean±SEM n=8 eye): −4.0 ± 1.3 mmHg
- IOP change (mmHg) 60 min ([1]; Example 26, Table 5, 2.0% w/v, 30 μL topical, 60 min post-dosing, mean±SEM n=8 eye): −3.5 ± 1.6 mmHg
- IOP change (mmHg) 300 min ([1]; Example 26, Table 5, 2.0% w/v, 30 μL topical, 300 min post-dosing, mean±SEM n=8 eye): −4.1 ± 2.7 mmHg
- IOP change (mmHg) 1440 min ([1]; Example 26, Table 5, 2.0% w/v, 30 μL topical, 1440 min (24 hours) post-dosing, mean±SEM n=8 eye, Fumarate): −2.8±2.0 mmHg
- maximum intraocular pressure-lowering efficacy, Emax [1, 3]: −4.1±2.7 mmHg
- time of Emax [1, 3]: 300 min

SMILES: CCCOc1ccc(S(=O)(=O)N2CCN(CCO[N+](=O)[O-])CC2)cc1-c1nc2c(CCC)cn(CC)c2c(=O)[nH]1 [PDE5 nitrate ester, 2-(4-(3-(5-ethyl-4-oxo-7-propyl-4,5-dihydro-3H-pyrrolo[3,2-d]pyrimidin-2-yl)-4-propoxyphenylsulfonyl)piperazin-1-yl)ethyl Nitrate, reference compound]
- IOP change (mmHg) E180 min ([2]; Example 25, Table 4, 180 min post-dosing, topical, 0.5 μmoles/eye, mean±SEM n=6-9): 0.3 ± 0.8 mmHg
- time post dosing of Emax ([2]; Example 25, Table 4, topical, 0.5 μmoles/eye): 60 min
- IOP change (mmHg) Emax ([2]; Example 25, Table 4, topical, 0.5 μmoles/eye, change versus basal and vehicle, mean±SEM n=6-9): −2.6 ± 0.5 mmHg

SMILES: O=C(O)CCCCCO[N+](=O)[O-] [(IIIa)-OH, 6-(nitrooxy)hexanoic acid]
- IOP change (mmHg) E480 ([1]; in vivo): −2.7±1.5 mmHg
- IOP change (mmHg) Emax ([1]; in vivo): −5.2±1.0 mmHg

SMILES: COc1ccc(CNc2nc(N3CCC[C@H]3COC(=O)CCOC[C@@H](CO[N+](=O)[O-])O[N+](=O)[O-])ncc2C(=O)NCc2ncccn2)cc1Cl.O=C(O)CC(O)(CC(=O)O)C(=O)O [Compound (12)-(2S)-citrate salt, ((S)-1-(4-(3-chloro-4-methoxybenzylamino)-5-(pyrimidin-2-ylmethylcarbamoyl)pyrimidin-2-yl)pyrrolidin-2-yl)methyl 3-((S)-2,3-bis(nitrooxy)propoxy)propanoate 2-hydroxypropane-1,2,3-tricarboxylate]
- IOP change (mmHg) 30 min ([2]; rabbit, in vivo): −5.6 ± 0.9 mmHg
- IOP change (mmHg) 60 min ([2]; rabbit, in vivo): −3.9 ± 1.0 mmHg
- IOP change (mmHg) 120 min ([2]; rabbit, in vivo): −2.4 ± 0.8 mmHg

SMILES: CCCOc1ccc(S(=O)(=O)N2CCN(CCOC(=O)CCOC[C@@H](CO[N+](=O)[O-])O[N+](=O)[O-])CC2)cc1-c1nc2c(CCC)cn(CC)c2c(=O)[nH]1.O=C(O)CC(O)(CC(=O)O)C(=O)O [Compound (1)-(2S)-citrate salt, (S)-2-(4-(3-(5-ethyl-4-oxo-7-propyl-4,5-dihydro-3H-pyrrolo[3,2-d]pyrimidin-2-yl)-4-propoxyphenylsulfonyl)piperazin-1-yl)ethyl 3-[2,3-bis(nitrooxy)propoxy]propanoate citrate]
- IOP change (mmHg) 30 min ([1]; in vivo): −4.0 ± 0.9 mmHg
- IOP change (mmHg) 60 min ([1]; in vivo): −5.3 ± 1.0 mmHg
- IOP change (mmHg) 180 min ([1]; in vivo): −4.9 ± 1.5 mmHg
- IOP change (mmHg) 300 min ([1]; in vivo): −4.4 ± 0.9 mmHg
- IOP change (mmHg) 1440 min ([1]; in vivo): −2.6 ± 1.3 mmHg
- IOP change (mmHg) E300 min ([1]; in vivo): −5.3 ± 1.9 mmHg
- IOP change (mmHg) Emax ([1]; in vivo): −7.0 ± 0.9 (60 min) mmHg
- IOP change (mmHg) E180 min ([2]; rabbit, in vivo): −1.8 ± 0.8 mmHg
- IOP change (mmHg) Emax ([2]; rabbit, in vivo): −3.8 ± 0.5 (60 min) mmHg
- IOP change at Emax ([2]; rabbit, in vivo): −3.8 ± 0.5 (60 min)
